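48-hour exposure; five concentrations; linearly interpolated endpoints. GI50 = concentration required for 50% inhibition of growth. TGI marks complete inhibition of growth.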
Assays:
Assay in all cases: DTP human tumour cell line panel, 48 h
786-0 renal = test system: 786-0 renal
A498 renal = test system: A498 renal
A549 NSCLC = test system: A549 NSCLC
ACHN renal = test system: ACHN renal
BT-549 breast = test system: BT-549 breast
CAKI-1 renal = test system: CAKI-1 renal
CCRF-CEM leukemia = test system: CCRF-CEM leukemia
COLO 205 colon = test system: COLO 205 colon
DU-145 prostate = test system: DU-145 prostate
EKVX NSCLC = test system: EKVX NSCLC
HCC-2998 colon = test system: HCC-2998 colon
HCT-116 colon = test system: HCT-116 colon
HCT-15 colon = test system: HCT-15 colon
HL-60(TB) leukemia = test system: HL-60(TB) leukemia
HOP-62 NSCLC = test system: HOP-62 NSCLC
HOP-92 NSCLC = test system: HOP-92 NSCLC
HS 578T breast = test system: HS 578T breast
HT29 colon = test system: HT29 colon
IGROV1 ovarian = test system: IGROV1 ovarian
K-562 leukemia = test system: K-562 leukemia
KM12 colon = test system: KM12 colon
LOX IMVI melanoma = test system: LOX IMVI melanoma
M14 melanoma = test system: M14 melanoma
MALME-3M melanoma = test system: MALME-3M melanoma
MCF7 breast = test system: MCF7 breast
MDA-MB-231 breast = test system: MDA-MB-231 breast
MDA-MB-435 = test system: MDA-MB-435
MDA-MB-468 breast = test system: MDA-MB-468 breast
MOLT-4 leukemia = test system: MOLT-4 leukemia
NCI-H226 lung = test system: NCI-H226 lung
NCI-H23 lung = test system: NCI-H23 lung
NCI-H460 lung = test system: NCI-H460 lung
NCI-H522 lung = test system: NCI-H522 lung
NCI/ADR-RES ovarian = test system: NCI/ADR-RES ovarian
OVCAR-3 ovarian = test system: OVCAR-3 ovarian
OVCAR-4 ovarian = test system: OVCAR-4 ovarian
OVCAR-5 ovarian = test system: OVCAR-5 ovarian
OVCAR-8 ovarian = test system: OVCAR-8 ovarian
PC-3 prostate = test system: PC-3 prostate
RXF 393 renal = test system: RXF 393 renal
SF-268 CNS = test system: SF-268 CNS
SF-295 CNS = test system: SF-295 CNS
SF-539 CNS = test system: SF-539 CNS
SK-MEL-2 melanoma = test system: SK-MEL-2 melanoma
SK-MEL-28 melanoma = test system: SK-MEL-28 melanoma
SK-MEL-5 melanoma = test system: SK-MEL-5 melanoma
SK-OV-3 ovarian = test system: SK-OV-3 ovarian
SN12C renal = test system: SN12C renal
SNB-19 CNS = test system: SNB-19 CNS
SNB-75 CNS = test system: SNB-75 CNS
SR leukemia = test system: SR leukemia
SW-620 colon = test system: SW-620 colon
T-47D breast = test system: T-47D breast
TK-10 renal = test system: TK-10 renal
U251 CNS = test system: U251 CNS
UACC-257 melanoma = test system: UACC-257 melanoma
UACC-62 melanoma = test system: UACC-62 melanoma
UO-31 renal = test system: UO-31 renal

Q: Which GI50 (786-0 renal) does the source give for `CCCn1c(=O)c2[nH]c(-c3ccc(OCc4nc5ccccc5[nH]4)cc3)nc2n(CCC)c1=O` here?
A: 2.83 µM

Q: What about the TGI (786-0 renal) of the same compound?
A: 10.6 µM

Q: What about the GI50 (A498 renal) of the same compound?
A: 14.3 µM

Q: And the TGI (A498 renal)?
A: 32.3 µM

Q: And the GI50 (A549 NSCLC)?
A: 5.92 µM

Q: What about the TGI (A549 NSCLC) of the same compound?
A: > 100 µM

Q: And the GI50 (ACHN renal)?
A: 5 µM

Q: What about the TGI (ACHN renal) of the same compound?
A: 24.9 µM

Q: What about the GI50 (BT-549 breast) of the same compound?
A: 8.41 µM

Q: What about the TGI (BT-549 breast) of the same compound?
A: 45.5 µM

Q: What about the GI50 (CAKI-1 renal) of the same compound?
A: 2.95 µM

Q: What about the TGI (CAKI-1 renal) of the same compound?
A: 11.9 µM

Q: What about the GI50 (CCRF-CEM leukemia) of the same compound?
A: > 100 µM

Q: What about the TGI (CCRF-CEM leukemia) of the same compound?
A: > 100 µM

Q: And the GI50 (COLO 205 colon)?
A: > 100 µM

Q: And the TGI (COLO 205 colon)?
A: > 100 µM

Q: What about the TGI (DU-145 prostate) of the same compound?
A: > 100 µM

Q: And the GI50 (EKVX NSCLC)?
A: 23.5 µM

Q: And the TGI (EKVX NSCLC)?
A: > 100 µM

Q: And the GI50 (HCC-2998 colon)?
A: 11.9 µM

Q: And the TGI (HCC-2998 colon)?
A: > 100 µM

Q: What about the GI50 (HCT-116 colon) of the same compound?
A: 3.94 µM

Q: What about the TGI (HCT-116 colon) of the same compound?
A: > 100 µM

Q: And the GI50 (HCT-15 colon)?
A: 31.9 µM

Q: What about the TGI (HCT-15 colon) of the same compound?
A: > 100 µM

Q: What about the GI50 (HL-60(TB) leukemia) of the same compound?
A: > 100 µM

Q: And the TGI (HL-60(TB) leukemia)?
A: > 100 µM

Q: What about the GI50 (HOP-62 NSCLC) of the same compound?
A: 8.39 µM

Q: And the TGI (HOP-62 NSCLC)?
A: 24.3 µM

Q: And the GI50 (HOP-92 NSCLC)?
A: 5.18 µM

Q: And the TGI (HOP-92 NSCLC)?
A: 25.3 µM

Q: What about the GI50 (HS 578T breast) of the same compound?
A: 2.3 µM

Q: What about the TGI (HS 578T breast) of the same compound?
A: 7.76 µM

Q: What about the GI50 (HT29 colon) of the same compound?
A: 13.2 µM

Q: And the TGI (HT29 colon)?
A: > 100 µM

Q: What about the GI50 (IGROV1 ovarian) of the same compound?
A: 15.3 µM

Q: What about the TGI (IGROV1 ovarian) of the same compound?
A: 42.8 µM

Q: And the GI50 (K-562 leukemia)?
A: > 100 µM

Q: And the TGI (K-562 leukemia)?
A: > 100 µM

Q: And the GI50 (KM12 colon)?
A: > 100 µM

Q: And the TGI (KM12 colon)?
A: > 100 µM

Q: What about the GI50 (LOX IMVI melanoma) of the same compound?
A: 3.47 µM

Q: What about the TGI (LOX IMVI melanoma) of the same compound?
A: 14.7 µM

Q: What about the GI50 (M14 melanoma) of the same compound?
A: 26.2 µM

Q: And the TGI (M14 melanoma)?
A: > 100 µM

Q: And the GI50 (MALME-3M melanoma)?
A: 3.43 µM

Q: What about the TGI (MALME-3M melanoma) of the same compound?
A: 16.4 µM

Q: What about the GI50 (MCF7 breast) of the same compound?
A: 3.32 µM

Q: And the TGI (MCF7 breast)?
A: 18.6 µM

Q: What about the GI50 (MDA-MB-231 breast) of the same compound?
A: 3.37 µM

Q: What about the TGI (MDA-MB-231 breast) of the same compound?
A: 12.6 µM

Q: And the GI50 (MDA-MB-435)?
A: 13 µM

Q: And the TGI (MDA-MB-435)?
A: > 100 µM

Q: What about the GI50 (MDA-MB-468 breast) of the same compound?
A: 3.13 µM

Q: And the TGI (MDA-MB-468 breast)?
A: 16.1 µM

Q: What about the GI50 (MOLT-4 leukemia) of the same compound?
A: > 100 µM

Q: What about the TGI (MOLT-4 leukemia) of the same compound?
A: > 100 µM

Q: And the GI50 (NCI-H226 lung)?
A: 2.4 µM

Q: And the TGI (NCI-H226 lung)?
A: 7.25 µM

Q: What about the GI50 (NCI-H23 lung) of the same compound?
A: 5.95 µM

Q: What about the TGI (NCI-H23 lung) of the same compound?
A: 18.1 µM

Q: What about the GI50 (NCI-H460 lung) of the same compound?
A: 3.7 µM

Q: And the TGI (NCI-H460 lung)?
A: 15.1 µM

Q: What about the GI50 (NCI-H522 lung) of the same compound?
A: 11.3 µM

Q: What about the TGI (NCI-H522 lung) of the same compound?
A: 34.3 µM

Q: What about the GI50 (NCI/ADR-RES ovarian) of the same compound?
A: 19.2 µM

Q: What about the TGI (NCI/ADR-RES ovarian) of the same compound?
A: > 100 µM

Q: And the GI50 (OVCAR-3 ovarian)?
A: 5.46 µM

Q: And the TGI (OVCAR-3 ovarian)?
A: 23.4 µM

Q: What about the GI50 (OVCAR-4 ovarian) of the same compound?
A: 2.99 µM

Q: And the TGI (OVCAR-4 ovarian)?
A: 53 µM

Q: And the GI50 (OVCAR-5 ovarian)?
A: 46.5 µM

Q: What about the TGI (OVCAR-5 ovarian) of the same compound?
A: > 100 µM

Q: What about the GI50 (OVCAR-8 ovarian) of the same compound?
A: 8.28 µM

Q: And the TGI (OVCAR-8 ovarian)?
A: 45.4 µM

Q: What about the GI50 (PC-3 prostate) of the same compound?
A: 17.6 µM

Q: And the TGI (PC-3 prostate)?
A: > 100 µM

Q: What about the GI50 (RXF 393 renal) of the same compound?
A: 2.06 µM

Q: What about the TGI (RXF 393 renal) of the same compound?
A: 6.94 µM

Q: What about the GI50 (SF-268 CNS) of the same compound?
A: 9.2 µM

Q: What about the TGI (SF-268 CNS) of the same compound?
A: 38.8 µM

Q: What about the GI50 (SF-295 CNS) of the same compound?
A: 3.04 µM

Q: And the TGI (SF-295 CNS)?
A: 13.3 µM

Q: What about the GI50 (SF-539 CNS) of the same compound?
A: 2.12 µM

Q: And the TGI (SF-539 CNS)?
A: 5.25 µM

Q: And the GI50 (SK-MEL-2 melanoma)?
A: 17.6 µM

Q: What about the TGI (SK-MEL-2 melanoma) of the same compound?
A: 34.4 µM

Q: And the GI50 (SK-MEL-28 melanoma)?
A: 33.5 µM

Q: What about the TGI (SK-MEL-28 melanoma) of the same compound?
A: > 100 µM

Q: What about the GI50 (SK-MEL-5 melanoma) of the same compound?
A: 4.05 µM

Q: What about the TGI (SK-MEL-5 melanoma) of the same compound?
A: 28 µM

Q: What about the GI50 (SK-OV-3 ovarian) of the same compound?
A: 15 µM

Q: What about the TGI (SK-OV-3 ovarian) of the same compound?
A: 32 µM

Q: What about the GI50 (SN12C renal) of the same compound?
A: 9.67 µM

Q: And the TGI (SN12C renal)?
A: 45.7 µM

Q: What about the GI50 (SNB-19 CNS) of the same compound?
A: 13.9 µM

Q: And the TGI (SNB-19 CNS)?
A: 33.1 µM

Q: And the GI50 (SNB-75 CNS)?
A: 1.63 µM

Q: What about the TGI (SNB-75 CNS) of the same compound?
A: 5.21 µM

Q: And the GI50 (SR leukemia)?
A: > 100 µM

Q: And the TGI (SR leukemia)?
A: > 100 µM

Q: What about the GI50 (SW-620 colon) of the same compound?
A: 18 µM

Q: What about the TGI (SW-620 colon) of the same compound?
A: > 100 µM

Q: What about the GI50 (T-47D breast) of the same compound?
A: 27.9 µM

Q: What about the TGI (T-47D breast) of the same compound?
A: > 100 µM

Q: What about the GI50 (TK-10 renal) of the same compound?
A: 6.89 µM

Q: And the TGI (TK-10 renal)?
A: 22.2 µM

Q: And the GI50 (U251 CNS)?
A: 3.83 µM

Q: And the TGI (U251 CNS)?
A: 18.4 µM

Q: What about the GI50 (UACC-257 melanoma) of the same compound?
A: 48 µM

Q: And the TGI (UACC-257 melanoma)?
A: > 100 µM

Q: What about the GI50 (UACC-62 melanoma) of the same compound?
A: 12 µM

Q: And the TGI (UACC-62 melanoma)?
A: 28.8 µM

Q: And the GI50 (UO-31 renal)?
A: 14.5 µM

Q: What about the TGI (UO-31 renal) of the same compound?
A: 43.4 µM
